Experimental data taken from patent US20030157715A1, “Modulation of chromosome function by chromatin remodeling agents” (priority 2000, published 2003).
Several values for one entry are separate records, joined by “and”; a condition that tells them apart may be missing. Equal values may be shown once. Entries after “also recorded” stand apart in the source; their conditions may differ.

How the values were obtained:
[1] = system: GAF distribution at the bw^D insert of polytene nuclei; experiment: GAF immunofluorescence in permeabilized bw^D salivary glands; assay type: cell-based, Drosophila melanogaster; conditions: permeabilized glands incubated 60 minutes with compound
Procedure: We argued that perhaps P31 may open the bw^D insert as to render this heterochromatin more accessible for GAF binding. To address this question, we incubated permeabilized bw^D salivary glands either with P31, P9 or no drug and then triply stained the polytene nuclei for GAF (by immunofluorescence), total DNA (with DAPI) and for the bw^D insert (with P31T). Stained polytene glands were gently mounted for microscopy without squashing in order examine a large number of nuclei.
Kc nuclei and polytene chromosomes were stained with fluorescent polyamides as described elsewhere (Janssen et al., 2000). For immunofluorescence, polytene glands were carefully dissected from bw^D or Canton S. flies in 1× PBS as described (Ashburner, 1989) Whole glands in sol P (1×PBS supplemented with 1 mM MgCl2 and 0.1% digitonin) were then incubated for 60 minutes with various concentrations of either P31, P9 or no compound at room temperature. P31 (not P9) induced redistribution of GAF during this incubation step. Glands were washed then twice for 5 min with sol P and fixed with fresh paraformaldehyde at a final concentration of 0.8%. Glands were washed 5 times in sol P for 5 min and then blocked for 60 min in the same buffer, supplemented with 5% non-fat milk. […] Images were recorded with a wide field, deconvolution-type imaging system from DeltaVision.

[2] = system: heterozygous bw^D flies (bw^D/+); experiment: Polyamides fed to developing heterozygous brown-dominant flies; assay type: in vivo, Drosophila melanogaster; conditions: for eye phenotype / trans-inactivation (in words): bw^D/+, st/st progeny
Procedure: It was therefore of great interest to test whether P31 would affect the eye phenotype of heterozygous bw^D flies. […] The experiment is similar to that described above for w^m4. Vials with semi-synthetic fly food medium were prepared containing a final concentration of 100 μM P31, P9 or no compound. Egg laying was allowed to proceed for 36 hours by homozygous (bw^D/bw^D) females that were crossed with scarlet (st/st) males. The progeny from this cross is heterozygous for the brown locus and homozygous for scarlet (bw^D/+; st/st). In a scarlet background, a modification of the bw^D eye color is much easier to observe (Talbert et al., 1994).
Drug treatments of the bw^D flies were performed as for w^m4 flies except that 30 parental females were allowed to lay eggs. To obtain the heterozygous bw^D/+; st/st progeny, 30 virgin bw^D/bw^D; st/st homozygous females were mated with scarlet homozygous males for about 5 days before transferring them to experimental vials for egg laying.
(§1) The lethality of the progenies was calculated by counting the dead bodies and the total empty pupal shells. The A6 to A5 transformation was detected by bristles that form on abdominal segment A6 on males. All male adult flies obtained (˜50) were scored. Sex combs and halteres were individually inspected and photographed under the microscope (Axiophot, Zeiss) after dissecting at least 30 individuals and incubating them into 30 μl of 0.6 g/ml gum arabic; 4 g/ml chlorohydrate; 35% glycerol under a 24×24 mm coverslip as described (Ashburner, 1989). Since raising double heterozygous flies (Ubx^1/+; bw^D/+) led to lethality, we morphologically dissected eight late stage pupae after carefully removing the pupal envelope.

[3] = system: w^m4 flies; experiment: Polyamides fed to developing white-mottled flies; assay type: in vivo, Drosophila melanogaster; conditions: for Lethality / Sex comb (mean) / Sex comb, range of teeth / A6 to A5: fly stock w^m4; for A6 to A5: males with bristles on A6
Excerpt: The eye phenotype of w^m4 flies is quite heterogeneous. About 65% of the eyes are strongly variegated, ranging from quasi-white with little pigment to those containing a generally white background and a number of red patches (defined as the white-mottled class). The remaining flies have eyes with a darker appearance with often larger red patches in an orange background (red-mottled class). Given the phenotypic heterogeneity of w^m4 flies, we carried out our experiments on a relatively large scale by mixing these compounds directly with semi-synthetic fly medium. Vials were prepared containing a final concentration of either 100 μM P9, P31 or no compound. Equal numbers of 5 to 10 days old w^m4 flies were allowed to lay eggs for 36 hours. The parents were then removed and progeny development was allowed to proceed at a constant temperature of 18° C. […] The timing of the developmental stages was also normal and generally, around 90 to 160 flies hatched per vial in this experiment (Table 2).
For eye phenotype analysis, young flies born on the same day were transferred to a drug-free vial and scored 5 days thereafter. Eye phenotypes were categorized into the two classes defined as white-mottled or red-mottled, after examination under a dissection microscope. […] Where in the absence of the drug, 62% of the eyes were scored as white-mottled, only 11% retained this phenotype for the flies raised in the presence of P9. […] In contrast, P31 had no effect on the w^m4 eye phenotype, since 64% of the flies remained white-mottled (FIG. 7C, Table 2).
Vials for egg laying containing polyamides were prepared as follows: 250 nmoles of P9, P31 was dissolved in 150 μl ddH2O and then mixed with 2.35 g of semi-synthetic fly media pre-heated at 60° C. These vials contained a concentration 100 μM of compound in final. After cooling down to room temperature, ˜300 w^m4 flies (age 5-10 days) were added to the vial for egg laying. Eggs were collected for a period of 36 hours at 18° C., mother flies were then removed and fly development was allowed to proceed at a constant temperature (18° C.±1). New-born flies of the same day were transferred to a fresh vial and scored after 5 days for eye phenotypes (Girard et al., 1998). For visual inspection of eye-phenotypes (Table 1), both female and male flies were scored. For optical density measurements of the eye-pigments, 30 heads of males were selected, pigments extracted and measured as described (Hazelrigg et al., 1984).
as §1

[4] = system: satellite III chromatin in Kc nuclei; experiment: Chromatin opening of satellite III: topoisomerase II / restriction enzyme cleavage in Kc nuclei; assay type: biochemical, Drosophila
[5] = 100 μM in fly food, eyes scored after 5 days
[6] = 30 male heads, spectrometry, 100 μM in food

## CN(C)CCCNC(=O)CCNC(=O)c1cc(NC(=O)c2cc(NC(=O)c3cc(NC(=O)CCNC(=O)c4cc(NC(=O)c5cc(NC(=O)c6cccn6C)cn5C)cn4C)cn3C)cn2C)cn1C [Compound P9, PyPyPy-β-PyPyPy-β-Dp]
[1]
  GAF distribution relative to the bw^D insert: does not alter this pattern
[2]
  eye phenotype / trans-inactivation (in words): indistinguishable from that of the no-drug control
[2]; fly stock bw^D/bw^+
  A6 to A5, number of bristles on A6: no bristles were observed
  Lethality: 5-10%
[2]; fly stock bw^D/bw^+, males with bristles on A6
  A6 to A5: 0%
[3]; 100 μM in fly food
  effect on PEV / w^m4 eye phenotype (in words): strong suppressor of PEV
[3]; [5]
  "White mottled" (Strongly Variegated): 8.9%
[3]; [6]
  red pigment level relative to control flies (no drug): about 3 times
  red pigment level relative to wild type flies: about 50%
[3]
  Lethality: 5-10%
  Sex comb (mean): 10.8
  Sex comb, range of teeth: 9-12
  A6 to A5: 0%
[4]
  facilitation of cleavage by topoisomerase II (in words): strongly facilitate cleavage
[4]; 62 nM, lowest concentration
  stimulation of topoisomerase II cleavage at 62 nM: massive cleavage stimulation
[4]; Kc nuclei in Xenopus egg extracts, VM26
  concentration of maximal stimulation of topoisomerase II cleavage: 500 nM and 500 to 1000 nM
[4]; P9 versus P31
  lower concentration than P31 needed to open satellite III: roughly 10 fold
[4]; data not shown
  cleavage within satellite III by restriction enzymes (HaeIII): facilitated cleavage within satellite III by restriction enzymes

## CN(C)CCCNC(=O)CCNC(=O)c1nc(NC(=O)CCNC(=O)c2nc(NC(=O)CCNC(=O)c3cc(NC(=O)c4nc(NC(=O)CCNC(=O)c5nccn5C)cn4C)cn3C)cn2C)cn1C [Compound P31, Im-β-Im-Py-β-Im-β-Im-β-Dp]
[1]
  GAF distribution relative to the bw^D insert: dramatic GAF redistribution
[2]; bw^D/+ progeny
  mean number of bristles on A6: 3.75
[2]
  eye phenotype / trans-inactivation (in words): does not overcome trans-inactivation to a significant extent
[2]; fly stock bw^D/bw^+
  Lethality: 5-10%
  Sex comb (mean): 8.1
  Sex comb, range of teeth: 7-10
[2]; fly stock bw^D/bw^+, grade, key not given
  PEV: (+?)
[2]; heterozygous progeny
  progeny lacking bristles on A6: about 10%
[2]; in vivo
  Pupae delay: 65 to 67 h
  developmental delay: over 2 days
[3]; 100 μM in fly food
  effect on PEV / w^m4 eye phenotype (in words): no effect; also recorded: no activity
[3]; [5]
  "White mottled" (Strongly Variegated): 64%
  "red Mottled" (Weakly Variegated): 36%
[3]
  Lethality: 5-10%
  Sex comb (mean): 10.8
  Sex comb, range of teeth: 9-13
  A6 to A5: 0%
[4]
  concentration giving cleavage stimulation comparable to 62 nM of P9: 500 nM
[4]; up to 200 nM
  stimulation of topoisomerase II cleavage up to 200 nM: no significant reinforcement
